Data set [1] has as its system Staphylococcus aureus (NRS 384). The experiment in a line: microbe, parasite or virus in culture. The class given is cell-based. The text has this: According to the Standards of Clinical and Laboratory Standards Institute (CLSI) of the USA for antimicrobial drug susceptibility test operation standards, a micronutrient serial twofold dilution method was used to determine minimum inhibitory concentrations (MICs) of all 60 peptides (S/N: LV-1˜LV-60) against Staphylococcus aureus (NRS 384). The experiment was repeated 5 times in parallel. […] An antibacterial drug Levofloxacin and an AMP Cbf-K16 (sequence of Cbf-K16: […]) were used as positive controls to evaluate the antibacterial effect of the antimicrobial peptides on Staphylococcus aureus (NRS 384).

The subject of data set [2] is rabbit red blood cells. The class given is cell-based. Particulars: red cells of rabbit, 1 h. As for the experimental part:
Fresh rabbit blood ([…]) was collected and centrifuged at 500 g for 5 min, a supernatant was discarded, and red blood cells were repeatedly washed with phosphate-buffered saline (PBS, 0.01 M, pH 7.4) until the supernatant was clear. The red blood cells (RBCs) were resuspended to 10 mL, and diluted 25-fold with PBS (0.01 M, pH 7.4) to prepare a red blood cell suspension with a concentration of about 2×10^8 RBC/mL. The AMPs were subjected to gradient dilution with normal saline (0.85%, w/v, NaCl) according to a multiple dilution method, final concentrations of the SMPs were 1.95, 3.9, 7.8, 15.6, 31.3, 62.5, 125, 250, 500, 1000, and 2000 μg/mL. 100 μl of polypeptide solution was taken and added to a 96-well plate with 5 replicates for each concentration; 100 μl of rabbit blood with a red blood cell count of about 2×10^8 RBC/mL was then added to each well, the plate was incubated at 37° C. for 1 h, centrifuged at 500 g for 5 min, 100 μl of supernatant was taken and transferred to a new 96-well plate, and an optical density (OD) at a wavelength of 541 nm was measured using a microplate reader. Triton X-100 (10 mg/mL as a starting concentration, two-fold gradient dilution) was used as a positive control group. A hemolysis rate was calculated using the following formula: Hemolysis rate (%)=[(OD541 of experimental group-OD541 of negative control group)/(OD541 of positive control group−OD541 of negative control group)]×100% Specific results of the hemolysis test are shown in Table 6. Minimum hemolytic concentration (MHC): a lowest drug concentration that can cause 10% hemolysis.

Data set [3] has as its system Methicillin-resistant Staphylococcus aureus (MRSA). The class given is in vivo, ICR mice. Particulars: topical formulation 1 mg/mL, 0.1 mL twice a day for 4 days, mouse back skin infection. As for the experimental part: (§1) Both female and male ICR mice were used in the test, half of the female and male mice were taken and randomly assigned into groups, with 10 mice in each group, and kept in separate cages. The mice were divided into a blank group, a model group, a positive control Methicillin group, and topical formulation groups of AMPs LV-1 to LV-30. Suspensions of Methicillin-sensitive Staphylococcus aureus (NRS 384) and Methicillin-resistant Staphylococcus aureus (MRSA) were prepared, and their concentrations were adjusted to a concentration of 5×10^6 CFU/mL for subsequent use. Hair on backs of the mice was shaved with a shaver, wound was created on back skin of each mouse using a biopsy punch, and the wound was then infected with Methicillin-sensitive Staphylococcus aureus and Methicillin-resistant Staphylococcus aureus (0.1 mL, 5×10^6 CFU/mL) to establish infection models. Except for the blank group and the model group, all other groups received corresponding topical formulations applied directly to the infected areas, with a dose of 0.1 mL, twice a day for 4 consecutive days. On the day following the final administration, skin from the infected sites of each group was aseptically collected, and an antibacterial rate was calculated.

Data set [4] relates to Methicillin-sensitive Staphylococcus aureus (NRS 384). It counts as in vivo, ICR mice. The note with it: topical formulation 1 mg/mL, 0.1 mL twice a day for 4 days, mouse back skin infection. Here is the method: as §1
In data set [5] the test system is Staphylococcus aureus (NRS 384). Particulars: 37° C., 3 h. As for the experimental part:
Trypsin (250 U/mg, pH=8.0) and AMPs (LV-1 to LV-30) were mixed in a ratio of 1:10 (w/w) and added to a reaction buffer (0.2 M sodium phosphate, 1 mM CaCl2), pH 7.5), and then incubated at 37° C. for 3 h.

Converted amounts (≈) assume the structure as drawn. Non-standard residues stand in square brackets, D forms with d. Residues, ends and D or L forms follow the SMILES beside them. Phe(3,4-F2) = N[C@@H](Cc1ccc(F)c(F)c1)C(=O)O; 2Nal = N[C@@H](Cc1ccc2ccccc2c1)C(=O)O

For `CC(=O)N[C@@H](CCCNC(=N)N)C(=O)N[C@@H](CCCNC(=N)N)C(=O)N[C@@H](CC(C)C)C(=O)N[C@@H](CC(C)C)C(=O)N[C@@H](Cc1ccc2ccccc2c1)C(=O)N[C@@H](CCCNC(=N)N)C(=O)N[C@@H](CC(C)C)C(=O)N[C@@H](CCCCN)C(=O)N[C@@H](Cc1ccc2ccccc2c1)C(=O)N[C@@H](CCCNC(=N)N)C(=O)N[C@@H](CCCCN)C(N)=O` [LV-51] (Ac-RRLL[2Nal]RLK[2Nal]RK-NH2), in data set [1] (NRS 384), the “MIC against Staphylococcus aureus (NRS 384)” value (“MIC … (NRS 384)” for short) amounted to 4 µg/mL (≈ 2.39 µM). Moreover, the “MHC (minimum hemolytic concentration, lowest concentration causing 10% hemolysis)” value in data set [2] is over 1000 µg/mL.
For `CC(=O)N[C@@H](CCCNC(=N)N)C(=O)N[C@@H](CCCCN)C(=O)N[C@@H](CC(C)C)C(=O)N[C@@H](CC(C)C)C(=O)N[C@@H](Cc1ccc2ccccc2c1)C(=O)N[C@@H](CCCNC(=N)N)C(=O)N[C@@H](CC(C)C)C(=O)N[C@@H](CCCCN)C(=O)N[C@@H](Cc1ccc2ccccc2c1)C(=O)N[C@@H](CCCNC(=N)N)C(=O)N[C@@H](CCCNC(=N)N)C(N)=O` [LV-52] (Ac-RKLL[2Nal]RLK[2Nal]RR-NH2) the same measures were 8 µg/mL (≈ 4.78 µM) and over 1000 µg/mL.
On the same counts, the results for `CC(=O)N[C@@H](CCCCN)C(=O)N[C@@H](CCCNC(=N)N)C(=O)N[C@@H](CC(C)C)C(=O)N[C@@H](CC(C)C)C(=O)N[C@@H](Cc1ccc2ccccc2c1)C(=O)N[C@@H](CCCCN)C(=O)N[C@@H](CC(C)C)C(=O)N[C@@H](CCCCN)C(=O)N[C@@H](Cc1ccc2ccccc2c1)C(=O)N[C@@H](CCCCN)C(=O)N[C@@H](CCCNC(=N)N)C(N)=O` [LV-53] (Ac-KRLL[2Nal]KLK[2Nal]KR-NH2) are 4 µg/mL (≈ 2.47 µM) and over 1000 µg/mL.
Regarding `CC(=O)N[C@@H](CCCNC(=N)N)C(=O)N[C@@H](CCCNC(=N)N)C(=O)N[C@@H](CC(C)C)C(=O)N[C@@H](CC(C)C)C(=O)N[C@@H](Cc1ccc2ccccc2c1)C(=O)N[C@@H](CCCCN)C(=O)N[C@@H](CC(C)C)C(=O)N[C@@H](CCCCN)C(=O)N[C@@H](Cc1ccc2ccccc2c1)C(=O)N[C@@H](CCCCN)C(=O)N[C@@H](CCCNC(=N)N)C(N)=O` [LV-54] (Ac-RRLL[2Nal]KLK[2Nal]KR-NH2), in data set [1] (NRS 384), the “MIC … (NRS 384)” value worked out at 8 µg/mL (≈ 4.86 µM). Also, in data set [2], the “MHC (minimum hemolytic concentration, lowest concentration causing 10% hemolysis)” value is over 1000 µg/mL.
In the case of `CC(=O)N[C@@H](CCCCN)C(=O)N[C@@H](CCCCN)C(=O)N[C@@H](CC(C)C)C(=O)N[C@@H](CC(C)C)C(=O)N[C@@H](Cc1ccc(F)c(F)c1)C(=O)N[C@@H](CCCNC(=N)N)C(=O)N[C@@H](CC(C)C)C(=O)N[C@@H](CCCCN)C(=O)N[C@@H](Cc1ccc(F)c(F)c1)C(=O)N[C@@H](CCCNC(=N)N)C(=O)N[C@@H](CCCCN)C(N)=O` [LV-55] (Ac-KKLL[Phe(3,4-F2)]RLK[Phe(3,4-F2)]RK-NH2), the “MIC … (NRS 384)” value in data set [1] (NRS 384) was 4 µg/mL (≈ 2.52 µM). The “MHC (minimum hemolytic concentration, lowest concentration causing 10% hemolysis)” value in data set [2] was over 1000 µg/mL.
On to `COc1cccc(OC)c1C(=O)N[C@@H]1C(=O)N2[C@@H]1SC(C)(C)[C@@H]2C(=O)O` [Methicillin, reference compound], for which, in data set [3], the “Inhibition rate against Methicillin-resistant Staphylococcus aureus (%)” value worked out at 1.05%. In addition, in data set [4], the “Inhibition rate against Methicillin-sensitive Staphylococcus aureus (%)” value came to 84.83%.
For Ac-RKLLFRLKFRK-NH2 [LV-32], the “MIC … (NRS 384)” value in data set [1] (NRS 384) is 4 µg/mL. The “MHC (minimum hemolytic concentration, lowest concentration causing 10% hemolysis)” value in data set [2] was over 1000 µg/mL.
For “KFFRKLKKSVKKRAKKFFKKPRVIGVSIPF [Cbf-K16, reference compound]”, in data set [1] (Staphylococcus aureus (NRS 384)), the “MIC … (NRS 384)” value is 32 µg/mL. Moreover, the “Trypsin MIC” value in data set [5] (MIC vs Staphylococcus aureus (NRS 384) after trypsin treatment 1:10 (w/w)) was over 128 µg/mL. The “MIC values after trypsin treatment” value in data set [5] (trypsin:AMP 1:10 (w/w), Staphylococcus aureus (NRS 384)) is recorded as “lost its antimicrobial activity”.

Values taken from patent publication US20250304620A1, “ANTIMICROBIAL PEPTIDE AND APPLICATION THEREOF” (priority 2023, published 2025).
